Data: US20080206198A1, “Compounds and methods for pharmico-gene therapy of epithelial sodium channel associated disorders” (priority 2003, published 2008)
Peptide text beside a SMILES is read from it. * marks the point of attachment. Cbz = O=C(OCc1ccccc1)*

What was measured:
[1] = test system: primary human fibroblasts; format: cell-based; settings: confluent primary human fibroblasts treated prior to rAAV infection; FACS at 96 hours post-infection
Description: Initial studies were performed in confluent primary human fibroblasts since dose titrations and toxicity could be quickly assessed. Selected agents were used to treat fibroblast monolayers prior to rAAV infection. rAAV transduction was assessed at 96 hours post-infection by FACS analysis, and the percentage of dead cells was simultaneously assessed by incorporation of propidium iodide.
These tripeptides are structurally related to chloroquine but have different lipid solubility and specificity for cysteine proteases (Seglen, 1983). These molecules decrease endosomal degradation of molecules by a mechanism different than altering pH.

mice = experiment: Toxicity of proteasome inhibitors in mice (intra-tracheal and IV); format: in vivo, mouse; settings: 10, 100 and 1000 fold higher doses than used in polarized airway cells
Description: Long-term enhancement of rAAV transduction by proteasome inhibitor in vivo. To evaluate the potential utility of proteasome inhibitors for in vivo gene therapy, both the toxicity and efficacy of these agents for in vivo rAAV mediated gene transfer in the mouse lung was tested. To assess the toxicity of these proteasome inhibitors in mice, 10, 100, and 1000 fold higher effective doses of LLnL or Z-LLL were administered than used to induce gene transfer in polarized airway cells, using both intra-tracheal and systemic (IV) delivery. No toxicity was indicated by histologic evaluation of the lung and liver or was evidenced by the death of animals. To investigate whether these proteasome inhibitors could improve rAAV transduction in vivo, AV.LacZ (5×10^10 particles) was delivered either alone or in the presence of 400 μM Z-LLL by intranasal administration. Mouse lungs were harvested at 3, 10 and 150 days post-infection to evaluate short and long term effects. […] Targeted transgene expression was predominantly confined to the conducting airways, rather than in the parenchyma. Alveolar cells were rarely transduced. […] The range of transgene expression in distal and proximal airways was 0 to 4% and 5 to 18%, respectively.

mouse lung [2] = experiment: AV2.RSVlucCap5 nasal aspiration in mice with Z-LLL and/or doxorubicin; format: in vivo; settings: 200 μM
Description: To determine in vivo transduction efficiency of AV2.RSVlucCap5, mice were infected with 6×10^10 particles of AV2.RSVlucCap5 by nasal aspiration alone (control) or in combination with 200 μM Z-LLL, 200 μM doxorubicin or 200 μM Z-LLL and 200 μM doxorubicin (12 mice per group). Co-administration of Z-LLL induced whole lung luciferase expression 17.2- and 2.1-fold at 14 (2 weeks) and 42 (6 weeks) days post-infection, respectively.

Balb/c mice = experiment: Safety of anthracyclines in Balb/c mice; format: in vivo, mouse; settings: intranasal, 10% HDE
From the text: (§1) Animals were followed for seven days post dose.
Safety endpoints included morbidity and mortality, clinical observations, body weights, gross necropsy observations and histopathology. Transduction endpoints included luciferase and GFP analysis.

IB3 cells = experiment: Nuclear versus cytoplasmic viral DNA fractionation in rAAV2-infected IB3 cells; format: cell-based, human
Description: LLnL and Z-LLL are two tripeptidyl aldehydes shown to inhibit calpains, cathepsins, cysteine proteases as well as the chymotrypsin-like protease activity of proteasomes (Wagner et al., 2002; Donkor, 2000; Sasaki et al., 1990). […] Both classes of proteasome inhibitors bind tightly to the proteasome complex. Dose response curves for these two proteasome-modulating agents were evaluated on IB3, A549, Hela, and primary fibroblasts. The responses were consistent for a number of cell lines and for three different promoters driving luciferase expression. For one set, CMV-driven luciferase constructs with an AAV2-based genome were employed that were packaged into AV2 or AV5 capsids. Cells were infected at various doses of AV2Luc and AV2/5Luc (MOIs 100 to 1000 particles/cell). At the time of infection, cells were treated with various concentrations of LLnL or Doxorubicin and gene expression was assayed at 24 hours post-infection. The effect of proteasome inhibitors on nuclear uptake of virus was evaluated using a previously-described protocol for fractionating viral DNA in the cytoplasm and nucleus (Xiao et al., 2002). Viral DNA content in the cytoplasmic and nuclear fractions was then evaluated by slot blot hybridization against a Luciferase DNA probe.

γ-ENaC gene promoter = experiment: Methylation-sensitive PCR of the γ-ENaC promoter CpG island in A549 cells; format: cell-based, human; settings: A549 genomic DNA
Description: Analysis of γ-ENaC promoter CpG Methylation. The methylation status of a CpG island beginning at approximately −1.8 kb of the γ-ENaC promoter was analyzed using a previously described PCR method (Malik et al., 2001). Briefly, genomic DNA was isolated from A549 cells that had been treated with and without doxorubicin, and then digested overnight with Mbol, MboI/MspI, or Mbol/HpaII. PCR reactions were then performed using primers that flank the MspI/HpaII sites in this region. Primers: forward 5′-[…]-3′ (SEQ ID NO: 13); reverse 5′-[…]-3′ (SEQ ID NO: 14).

[3] = test system: polarized airway epithelia; experiment: Apical rAAV (AAV2 and AAV5 capsid) infection of polarized airway epithelia with agent combinations; format: cell-based, human; settings: for concentration at which transduction was enhanced: polarized airway epithelial cells
Description: C. To determine whether combinations of agents that enhance rAAV transduction efficiency have synergistic or additive effects when used in combination, cells were contacted with the proteasome modulator, doxorubicin, and the proteasome inhibitor Z-LLL or LLnL. Different AAV vectors were tested, including splicing vectors and pseudotyped rAAV. Viral stocks utilized were as follows: Av2RSVluc, 5×10^8 particle/μl; Av2RSVlucCap5 (also referred to as Av2/5 CMVLuc), 2×10^9 particle/μl; Av2CMVluc, 1.3×10^9 particle/μl; and Av2CMVlucCap5, 1.1×109 particle/μl. Combinations of agents were compared to the agents used alone to determine the efficiency of transduction. LLnL was used at 40, 200 or 400 μM, Z-LLL at 4 μM and doxorubicin at 0.5 or 1 μM when employed alone. When a combination of LLnL and doxorubicin was used, LLnL was used at 4, 10, 20, 40, 200 or 400 μM and doxorubicin at 1 or 5 μM. The apical surface of polarized airway epithelia, HeLa cells or ferret fibroblast was contacted with the agents and rAAV (5×10^9 particles per well).

mouse lung [4] = experiment: Intranasal AAV2-Luc with anthracyclines in Balb/c mice (lung luciferase); format: in vivo; settings: 10% HDE intranasal, day 7
From the text: as §1
The dose of modulator was based on the Human Dose Equivalent (HDE) and is summarized below in Table 4. For intranasal dose administration, the dose was held constant at 10% of the HDE.
On the day of sacrifice, the left lung was clamped off at the level of the extrapulmonary bronchi, removed and frozen on dry ice. The left lung was homogenized and processed for luciferase expression using Promega's luciferase assay system (Madison, Wis.). Luminescence was measured using the Berthold AutoLumat LB953 instrument. Samples were normalized for total protein using Pierce's Coomassie Plus Protein Assay Reagent (Rockford, Ill.).

Molecule	rAAV transduction [1]	toxicity (histology of lung and liver, death of animals) (mice)	induction of whole lung luciferase expression (mouse lung [2]; 14 days (2 weeks) post-infection)	induction of whole lung luciferase expression (mouse lung [2]; 42 days (6 weeks) post-infection)	mortality and clinical observations (Balb/c mice; 7 days)	body weight (Balb/c mice; over the week)	fraction of viral DNA in the nuclear compartment (IB3 cells)	CpG methylation of the γ-ENaC promoter (protection from HpaII digestion) (γ-ENaC gene promoter)	induction of AAV2 and AAV5 apical infection of polarized cells ([3]; in the presence of doxorubicin)	concentration at which transduction was enhanced [3]	luciferase expression, Average (mouse lung [4]; both sexes)	luciferase expression, Average (mouse lung [4]; female)	luciferase expression, Average (mouse lung [4]; male)
CC(C)C[C@@H](C=O)NC(=O)[C@H](CC(C)C)NC(=O)[C@H](CC(C)C)NC(=O)OCc1ccccc1 [Z-LLL, N-carbobenzoxyl-L-leucinyl-L-leucinyl-L-leucinal] (Cbz-Leu-Leu-Leu-aldehyde)	significantly increased rAAV transduction	No toxicity	17.2 fold	2.1 fold									
COc1cccc2c1C(=O)c1c(O)c3c(c(O)c1C2=O)C[C@@](O)(C(=O)CO)C[C@@H]3O[C@H]1C[C@H](N)[C@H](O)[C@H](C)O1 [doxorubicin]					early mortality of some animals, ruffled hair coats and sick mice	lost considerable body weight	significantly increased the fraction of viral DNA in the nuclear compartment	significant Dox-dependent protection from HpaII digestion	200 to 600 fold	5 µM	1.77E+06	5.44E+05	*4.21E+06
N-acetyl-L-leucinyl-L-leucinal-L-norleucinal [LLnL]	significantly increased rAAV transduction	No toxicity					significantly increased the fraction of viral DNA in the nuclear compartment			40 µM			
